Laboratory results as given in patent publication US10006064B2, “Biosynthetic pathways, recombinant cells, and methods” (REGENTS OF THE UNIVERSITY OF MINNESOTA, priority 2012, dated 2018).
≈ marks a conversion by molar mass, not a printed value.

B1: ATF1: Alcohol acetyltransferase from S. cerevisiae, expressed in recombinant E. coli BW25113 (protein, listed as Saccharomyces cerevisiae)
chain: MDLWKRLFEANPTKIRDKKIKNGHFISITNTINLSALMNEIDEKNQAPVQQECLKEMIQNGHARRMGSVEDLYVALNRQNLYRNFCTYGELSDYCTRDQLTLALREICLKNPTLLHIVLPTRWPNHENYYRSSEYYSRPHPVHDYISVLQELKLSGVVLNEQPEYSAVMKQILEEFKNSKGSYTAKIFKLTTTLTIPYFGPTGPSWRLICLPEEHTEKWKKFIFVSNHCMSDGRSSIHFFHDLRDELNNIKTPPKKLDYIFKYEEDYQLLRKLPEPIEKVIDFRPPYLFIPKSLLSGFIYNHLRFSSKGVCMRMDDVEKTDDVVTEIINISPTEFQAIKANIKSNIQGKCTITPFLHVCWFVSLHRWGKFFKPLNFEWLTDIFIPADCRSQLPDDDEMRQMYRYGANVGFIDFTPWISEFDMNDNKENFWPLIEHYHEVISEALRNKKHLHGLGFNIQGFVQKYVNIDKVMCDRAIGKRRGGTLLSNVGLFNQLEEPDAKYSICDLAFGQFQGSWHQAFSLGVCSTNVKGMNIVVASTKNVVGSQESLEELCSIYKALLLGP
B2: ATF2: Alcohol acetyltransferase from S. cerevisiae, expressed in recombinant E. coli BW25113 (protein, listed as Saccharomyces cerevisiae)
chain: MEDIEGYEPHITQELIDRGHARRMGHLENYFAVLSRQKMYSNFTVYAELNKGVNKRQLMLVLKVLLQKYSTLAHTIIPKHYPHHEAYYSSEEYLSKPFPQHDFIKVISHLEFDDLIMNNQPEYREVMEKISEQFKKDDFKVTNRLIELISPVIIPLGNPKRPNWRLICLPGKDTDGFETWKNFVYVTNHCGSDGVSGSNFFKDLALLFCKIEEKGFDYDEEFIEDQVIIDYDRDYTEISKLPKPITDRIDYKPALTSLPKFFLTTFIYEHCNFKTSSESTLTARYSPSSNANASYNYLLHFSTKQVEQIRAQIKKNVHDGCTLTPFIQACFLVALYRLDKLFTKSLLEYGFDVAIPSNARRFLPNDEELRDSYKYGSNVGGSHYAYLISSFDIPEGDNDKFWSLVEYYYDRFLESYDNGDHLIGLGVLQLDFIVENKNIDSLLANSYLHQQRGGAIISNTGLVSQDTTKPYYVRDLIFSQSAGALRFAFGLNVCSTNVNGMNMDMSVVQGTLRDRGEWESFCKLFYQTIGEFASL

Tested on: not given
Experiment: not given
Details: solubility in water / aqueous medium; cited from earlier work
For `CCO` [Ethanol], the Solubility is listed as “miscible”.
In the case of `CCOC(C)=O` [Ethyl acetate], the Solubility is given as 83000 µg/mL.
In the case of `CCOC(=O)C(C)C` [Ethyl isobutyrate], the Solubility is listed as 3200 µg/mL (≈ 27.5 mM).
For `CCOC(=O)CC(C)C` [Ethyl isovalerate], the Solubility is given as 2000 µg/mL (≈ 15.4 mM).
In the case of `CC(C)COC(=O)C(C)C` [isobutyl isobutyrate], the Solubility is given as 500 µg/mL (≈ 3.47 mM).
For `CC(C)CC(=O)OC(=O)CC(C)C` [isovaleryl isovalerate], the Solubility is listed as “insoluble”.

Tested on: E. coli strain BW25113
Experiment: Shake flask fermentation with candidate alcohol acyltransferases, isobutyl acetate production (GC-FID)
Format: cell-based
Details: strains identical except for the AAT; 20 g/L glucose, 30° C., 48 hours; ± standard deviation, three colonies
Excerpt: (§1) Each was cloned and transformed into E. coli strain BW25113 for analysis.
(§2) Three synthetic operons were constructed for gene expression to produce isobutyl acetate and isoamyl acetate (FIG. 5). All the plasmids were constructed to be under the regulation of PLlacO1 promoter. To produce isobutyl acetate, the first operon included four coding regions on a medium copy plasmid carrying kanamycin resistance marker in a transcriptional order ilvC-ilvD-alsS-AAT, with the ATT position being occupied by the coding region of one of the five exemplary acyltransferases (AAT) being analyzed. (FIG. 5(a)). The second operon included two coding regions on a high copy plasmid with an ampicillin resistance maker in a transcriptional order kivd-yqhD. For the synthesis of isoamyl acetate, the coding regions of leuA, leuB, leuC, and leuD involved in leucine biosynthesis were introduced in the first medium copy plasmid between alsS and AAT, and the same second high copy plasmid was used. (FIG. 5(b)).
(§3) We assessed the effect of each of the five exemplary acyltransferases on the production titers for isobutyl acetate and isoamyl acetate. […]
(§4) Shake flask fermentations were carried out for the recombinant strains. […] The produced medium-chain ester compounds were quantified by GC-FID (gas chromatography-flame ionization detector) analysis. […]
For B1, the “isobutyl acetate production titer” value was 2.14 ± 0.17 g/L.
In the case of B2, the “isobutyl acetate production titer” value is reported as 1.69 ± 0.46 g/L.

Tested on: E. coli strain BW25113
Experiment: Shake flask fermentation with candidate alcohol acyltransferases, isoamyl acetate production (GC-FID)
Format: cell-based
Details: strains identical except for the AAT, with leuABCD; 20 g/L glucose, 30° C., 48 hours
Excerpt: as §1, §2, §3, §4
With B1 the “isoamyl acetate production titer” value was “highest production titers”.
In the case of B2, the “isoamyl acetate production titer” value is reported as “highest production titers”.
